Laboratory results as given in patent US20260176320A1, “MODULATORS OF G-PROTEIN COUPLED RECEPTORS” (priority 2018, published 2026).
Like-named read-outs stand apart in the source and are kept apart here.

Columns and labels:
Type in all cases: cell-based
GLP-1R [1] = target: T1, GLP-1R (Homo sapiens, UniProt P43220); assay: PathHunter β-arrestin assay
Procedure, shortened: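 β-Arrestin recruitment measured by PathHunter enzyme-fragment luminescence, read after 3 h dark incubation at room temperature with detection solution. Beforehand, agonist in a 22-point 2-fold series was applied in duplicate for 90 min at 37 °C to 5,000 cells/well in BSA-containing (0.2%) medium.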

GLP-1R [2] = target: T1, GLP-1R; assay: HitHunter cAMP assay (GLP-1R); conditions: cAMP; for Emax: read-out: (Emax) GLP-1R
Procedure, shortened: (§1)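 cAMP accumulation read by luminescent HitHunter immunocompetition after 30 min room-temperature agonist stimulation. Agonists tested as 22-point twofold dilutions, in duplicate, on 10,000 cells/well in HBSS containing 625 μM IBMX, 10 mM HEPES and 0.2% BSA.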

GIP-R = target: T2, GIP-R (Homo sapiens, UniProt P48546); assay: HitHunter cAMP assay (GIP-R); conditions: cAMP; for Emax: read-out: (Emax) GIP-R
T2 sequence (P48546 22-466): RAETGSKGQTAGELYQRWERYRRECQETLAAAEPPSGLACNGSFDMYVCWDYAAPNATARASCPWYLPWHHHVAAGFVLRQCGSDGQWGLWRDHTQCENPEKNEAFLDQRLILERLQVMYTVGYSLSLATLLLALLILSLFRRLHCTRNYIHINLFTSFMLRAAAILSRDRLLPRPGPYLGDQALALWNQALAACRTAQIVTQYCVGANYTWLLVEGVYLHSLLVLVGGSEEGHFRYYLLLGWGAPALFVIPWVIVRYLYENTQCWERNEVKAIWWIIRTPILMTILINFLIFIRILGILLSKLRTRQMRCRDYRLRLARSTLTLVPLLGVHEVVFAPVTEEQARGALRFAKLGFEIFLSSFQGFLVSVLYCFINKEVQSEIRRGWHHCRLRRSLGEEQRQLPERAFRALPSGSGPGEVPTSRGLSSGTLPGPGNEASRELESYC
Procedure, shortened: as §1

[3] = read-out: (Emax) GIP-R at 1 μM, Table 3
[4] = PathHunter β-arrestin assay, read-out: β-arrestin activity EC50
[5] = Table 3, read-out: EC50 GLP-1R/nM
[6] = Table 3A, read-out: EC50 GLP-1R/nM
[7] = Table 3, read-out: EC50 GIP-R/nM
[8] = Table 3A, read-out: EC50 GIP-R/nM

T1 sequence (P43220 24-463): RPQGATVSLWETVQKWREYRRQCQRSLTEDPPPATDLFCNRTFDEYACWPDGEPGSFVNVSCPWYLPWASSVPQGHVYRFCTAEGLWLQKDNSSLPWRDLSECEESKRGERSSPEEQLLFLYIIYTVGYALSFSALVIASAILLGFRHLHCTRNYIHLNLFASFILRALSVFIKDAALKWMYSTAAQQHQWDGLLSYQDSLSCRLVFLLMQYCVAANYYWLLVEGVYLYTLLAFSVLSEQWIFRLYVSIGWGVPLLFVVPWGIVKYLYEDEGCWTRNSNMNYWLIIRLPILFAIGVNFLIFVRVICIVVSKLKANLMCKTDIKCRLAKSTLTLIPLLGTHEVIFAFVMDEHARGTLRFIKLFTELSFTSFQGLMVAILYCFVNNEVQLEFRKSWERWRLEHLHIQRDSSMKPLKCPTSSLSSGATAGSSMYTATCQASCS

Structure (SMILES)	EC50 (GLP-1R [1])	EC50 (GLP-1R [2]; EC50 GLP-1R/nM, Table 3)	EC50 (GLP-1R [2]; EC50 GLP-1R/nM, Table 3A)	Emax (GLP-1R [2]; Table 3)	Emax (GLP-1R [2]; Table 3A)	EC50 (GIP-R; EC50 GIP-R/nM, Table 3)	Emax at 1 µM (GIP-R; [3])	EC50 (GIP-R; read-out: EC50 GIP-R/nM, Table 3A)	EC50 (GLP-1R [1]; [4])	EC50 (GLP-1R [2]; [5])	EC50 (GLP-1R [2]; [6])	Emax (GIP-R; Table 3)	EC50 (GIP-R; [7])	Emax (GIP-R; Table 3A)	EC50 (GIP-R; [8])	EC50 (GIP-R; EC50 GIP-R/nM, Table 3A)	Emax at 1 µM (GIP-R; read-out: (Emax) GIP-R at 1 μM, Table 3A)
CC[C@H](C)[C@H](NC(=O)[C@H](CO)NC(=O)[C@H](Cc1ccc(O)cc1)NC(=O)[C@H](CC(=O)O)NC(=O)[C@H](CO)NC(=O)[C@@H](NC(=O)[C@H](Cc1ccccc1)NC(=O)[C@@H](NC(=O)CNC(=O)[C@H](CCC(=O)O)NC(=O)C12CC(C(=O)NCCN3C(=O)CSC3=O)(C1)C2)[C@@H](C)O)[C@@H](C)O)C(=O)N[C@@H](Cc1ccc(O)cc1)C(=O)N[C@@H](CC(C)C)C(=O)N[C@@H](CC(=O)O)C(=O)N[C@@H](CCCCN)C(=O)N[C@@H](CCC(N)=O)C(=O)N[C@@H](C)C(=O)N[C@@H](C)C(=O)NC(C)(C)C(=O)N[C@@H](CCC(=O)O)C(=O)N[C@@H](Cc1ccccc1)C(=O)N[C@H](C(=O)N[C@@H](CC(N)=O)C(=O)N[C@@H](Cc1c[nH]c2ccccc12)C(=O)N[C@@H](CC(C)C)C(=O)N[C@@H](CC(C)C)C(=O)N[C@@H](C)C(=O)NCC(=O)NCC(=O)N1CCC[C@H]1C(=O)N[C@@H](CO)C(=O)N[C@@H](CO)C(=O)NCC(=O)N[C@@H](C)C(=O)N1CCC[C@H]1C(=O)N1CCC[C@H]1C(=O)N1CCC[C@H]1C(=O)N[C@@H](CO)C(=O)N[C@@H](CCCCN)C(N)=O)C(C)C [Compound 179]	10 to 1000 nM	0.1 to 1 nM	0.1 to 1 nM	103%	103%	> 1000 nM	2%	> 1000 nM									
CC[C@H](C)[C@H](NC(=O)[C@H](CO)NC(=O)[C@H](Cc1ccc(O)cc1)NC(=O)[C@H](CC(=O)O)NC(=O)[C@H](CO)NC(=O)[C@@H](NC(=O)[C@H](Cc1ccccc1)NC(=O)[C@@H](NC(=O)CNC(=O)[C@H](CCC(=O)O)NC(=O)CSCC(=O)NCCCN1C(=O)c2ccccc2C1=O)[C@@H](C)O)[C@@H](C)O)C(=O)N[C@@H](Cc1ccc(O)cc1)C(=O)N[C@@H](CC(C)C)C(=O)N[C@@H](CC(=O)O)C(=O)N[C@@H](CCCCN)C(=O)N[C@@H](CCC(N)=O)C(=O)N[C@@H](C)C(=O)N[C@@H](C)C(=O)NC(C)(C)C(=O)N[C@@H](CCC(=O)O)C(=O)N[C@@H](Cc1ccccc1)C(=O)N[C@H](C(=O)N[C@@H](CC(N)=O)C(=O)N[C@@H](Cc1c[nH]c2ccccc12)C(=O)N[C@@H](CC(C)C)C(=O)N[C@@H](CC(C)C)C(=O)N[C@@H](C)C(=O)NCC(=O)NCC(=O)N1CCC[C@H]1C(=O)N[C@@H](CO)C(=O)N[C@@H](CO)C(=O)NCC(=O)N[C@@H](C)C(=O)N1CCC[C@H]1C(=O)N1CCC[C@H]1C(=O)N1CCC[C@H]1C(=O)N[C@@H](CO)C(=O)N[C@@H](CCCCN)C(N)=O)C(C)C [Compound 180]				94%	94%				> 1000 nM	10 to 100 nM	10 to 100 nM	84%	10 to 100 nM	84%	10 to 100 nM		
CC[C@H](C)[C@H](NC(=O)[C@H](CO)NC(=O)[C@H](Cc1ccc(O)cc1)NC(=O)[C@H](CC(=O)O)NC(=O)[C@H](CO)NC(=O)[C@@H](NC(=O)[C@H](Cc1ccccc1)NC(=O)[C@@H](NC(=O)CNC(=O)[C@H](CCC(=O)O)NC(=O)CCCCC(=O)NCCN1C(=O)c2ccccc2C1=O)[C@@H](C)O)[C@@H](C)O)C(=O)N[C@@H](Cc1ccc(O)cc1)C(=O)N[C@@H](CC(C)C)C(=O)N[C@@H](CC(=O)O)C(=O)N[C@@H](CCCCN)C(=O)N[C@@H](CCC(N)=O)C(=O)N[C@@H](C)C(=O)N[C@@H](C)C(=O)NC(C)(C)C(=O)N[C@@H](CCC(=O)O)C(=O)N[C@@H](Cc1ccccc1)C(=O)N[C@H](C(=O)N[C@@H](CC(N)=O)C(=O)N[C@@H](Cc1c[nH]c2ccccc12)C(=O)N[C@@H](CC(C)C)C(=O)N[C@@H](CC(C)C)C(=O)N[C@@H](C)C(=O)NCC(=O)NCC(=O)N1CCC[C@H]1C(=O)N[C@@H](CO)C(=O)N[C@@H](CO)C(=O)NCC(=O)N[C@@H](C)C(=O)N1CCC[C@H]1C(=O)N1CCC[C@H]1C(=O)N1CCC[C@H]1C(=O)N[C@@H](CO)C(=O)N[C@@H](CCCCN)C(N)=O)C(C)C [Compound 181]	> 1000 nM	10 to 100 nM	10 to 100 nM	103%	103%	1 to 10 nM						102%		102%		1 to 10 nM	
CC[C@H](C)[C@H](NC(=O)[C@H](CO)NC(=O)[C@H](Cc1ccc(O)cc1)NC(=O)[C@H](CC(=O)O)NC(=O)[C@H](CO)NC(=O)[C@@H](NC(=O)[C@H](Cc1ccccc1)NC(=O)[C@@H](NC(=O)CNC(=O)[C@H](CCC(=O)O)NC(=O)[C@H]1CC[C@@H](C(=O)NCCN2C(=O)CSC2=O)CC1)[C@@H](C)O)[C@@H](C)O)C(=O)N[C@@H](Cc1ccc(O)cc1)C(=O)N[C@@H](CC(C)C)C(=O)N[C@@H](CC(=O)O)C(=O)N[C@@H](CCCCN)C(=O)N[C@@H](CCC(N)=O)C(=O)N[C@@H](C)C(=O)N[C@@H](C)C(=O)NC(C)(C)C(=O)N[C@@H](CCC(=O)O)C(=O)N[C@@H](Cc1ccccc1)C(=O)N[C@H](C(=O)N[C@@H](CC(N)=O)C(=O)N[C@@H](Cc1c[nH]c2ccccc12)C(=O)N[C@@H](CC(C)C)C(=O)N[C@@H](CC(C)C)C(=O)N[C@@H](C)C(=O)NCC(=O)NCC(=O)N1CCC[C@H]1C(=O)N[C@@H](CO)C(=O)N[C@@H](CO)C(=O)NCC(=O)N[C@@H](C)C(=O)N1CCC[C@H]1C(=O)N1CCC[C@H]1C(=O)N1CCC[C@H]1C(=O)N[C@@H](CO)C(=O)N[C@@H](CCCCN)C(N)=O)C(C)C [Compound 182]				96%	96%		12%		> 1000 nM	0.1 to 1 nM	0.1 to 1 nM		100 to 1000 nM		100 to 1000 nM		12%
CC[C@H](C)[C@H](NC(=O)[C@H](CO)NC(=O)[C@H](Cc1ccc(O)cc1)NC(=O)[C@H](CC(=O)O)NC(=O)[C@H](CO)NC(=O)[C@@H](NC(=O)[C@H](Cc1ccccc1)NC(=O)[C@@H](NC(=O)CNC(=O)[C@H](CCC(=O)O)NC(=O)[C@H]1CC[C@H](C(=O)NCCN2C(=O)CSC2=O)CC1)[C@@H](C)O)[C@@H](C)O)C(=O)N[C@@H](Cc1ccc(O)cc1)C(=O)N[C@@H](CC(C)C)C(=O)N[C@@H](CC(=O)O)C(=O)N[C@@H](CCCCN)C(=O)N[C@@H](CCC(N)=O)C(=O)N[C@@H](C)C(=O)N[C@@H](C)C(=O)NC(C)(C)C(=O)N[C@@H](CCC(=O)O)C(=O)N[C@@H](Cc1ccccc1)C(=O)N[C@H](C(=O)N[C@@H](CC(N)=O)C(=O)N[C@@H](Cc1c[nH]c2ccccc12)C(=O)N[C@@H](CC(C)C)C(=O)N[C@@H](CC(C)C)C(=O)N[C@@H](C)C(=O)NCC(=O)NCC(=O)N1CCC[C@H]1C(=O)N[C@@H](CO)C(=O)N[C@@H](CO)C(=O)NCC(=O)N[C@@H](C)C(=O)N1CCC[C@H]1C(=O)N1CCC[C@H]1C(=O)N1CCC[C@H]1C(=O)N[C@@H](CO)C(=O)N[C@@H](CCCCN)C(N)=O)C(C)C [Compound 183]				95%	95%		1.4%		> 1000 nM	10 to 100 nM	10 to 100 nM		> 1000 nM		> 1000 nM		
CC[C@H](C)[C@H](NC(=O)[C@H](CO)NC(=O)[C@H](Cc1ccc(O)cc1)NC(=O)[C@H](CC(=O)O)NC(=O)[C@H](CO)NC(=O)[C@@H](NC(=O)[C@H](Cc1ccccc1)NC(=O)[C@@H](NC(=O)CNC(=O)[C@H](CCC(=O)O)NC(=O)CSCC(=O)NCCCCN1C(=O)CSC1=O)[C@@H](C)O)[C@@H](C)O)C(=O)N[C@@H](Cc1ccc(O)cc1)C(=O)N[C@@H](CC(C)C)C(=O)N[C@@H](CC(=O)O)C(=O)N[C@@H](CCCCN)C(=O)N[C@@H](CCC(N)=O)C(=O)N[C@@H](C)C(=O)N[C@@H](C)C(=O)NC(C)(C)C(=O)N[C@@H](CCC(=O)O)C(=O)N[C@@H](Cc1ccccc1)C(=O)N[C@H](C(=O)N[C@@H](CC(N)=O)C(=O)N[C@@H](Cc1c[nH]c2ccccc12)C(=O)N[C@@H](CC(C)C)C(=O)N[C@@H](CC(C)C)C(=O)N[C@@H](C)C(=O)NCC(=O)NCC(=O)N1CCC[C@H]1C(=O)N[C@@H](CO)C(=O)N[C@@H](CO)C(=O)NCC(=O)N[C@@H](C)C(=O)N1CCC[C@H]1C(=O)N1CCC[C@H]1C(=O)N1CCC[C@H]1C(=O)N[C@@H](CO)C(=O)N[C@@H](CCCCN)C(N)=O)C(C)C [Compound 184]	> 1000 nM	1 to 10 nM	1 to 10 nM	99%	99%	10 to 100 nM						43%		43%		10 to 100 nM	
